Patent US11583556B2, “Modified cells and methods of therapy” (Regents of the University of Minnesota, priority 2015, dated 2023)

How the values were obtained:
Type in all cases: cell-based, human
CCR5 = assay: Validation of gRNAs in HEK293T cells, Surveyor digest and densitometry, CCR5 site; details: CCR5 target gene site, 3 days
Experimental: (§1) HEK293T cells were plated out at a density of 1×10^5 cells per well in a 24 well plate. 150 uL of Opti-MEM medium was combined with 1.5 ug of gRNA plasmid, 1.5 ug of Cas9 plasmid. Another 150 uL of Opti-MEM medium was combined with 5 ul of Lipofectamine 2000 Transfection reagent (Invitrogen). The solutions were combined together and incubated for 15 minutes at room temperature. The DNA-lipid complex was added dropwise to wells of the 24 well plate. Cells were incubated for 3 days at 37° C. and genomic DNA was collected using the GeneJET Genomic DNA Purification Kit (Thermo Scientific). Activity of the gRNAs was quantified by a Surveyor Digest, gel electrophoresis, and densitometry (FIG. 60 and FIG. 61) (Guschin, D. Y., et al., “A Rapid and General Assay for Monitoring Endogenous Gene Modification,” Methods in Molecular Biology, 649: 247-256 (2010)).
(§2) The efficiencies of Cas9 in creating double strand break (DSB) with the assistance of different gRNA sequences were listed in Table 7. The percentage numbers in Table 7 indicated the percent of gene modifications in the sample.

HPRT = assay: Validation of gRNAs in HEK293T cells, Surveyor digest and densitometry, HPRT site; details: HPRT target gene site, 3 days
Experimental: as §1, §2

PD1 = assay: Validation of gRNAs in HEK293T cells, Surveyor digest and densitometry, PD1 site; details: PD1 target gene site, 3 days
Experimental: as §1
(§3) The percentage numbers in Table 7 indicated the percent of gene modifications in the sample.

AAVS1 = assay: Validation of gRNAs in HEK293T cells, Surveyor digest and densitometry, AAVS1 site; details: AAVS1 target gene site, 3 days
Experimental: as §1, §3

CTLA4 = assay: Validation of gRNAs in HEK293T cells, Surveyor digest and densitometry, CTLA4 site; details: CTLA4 target gene site, 3 days
Experimental: as §1, §2

CCR5 gRNA#6: guide RNA to CCR5; sense oligo SEQ ID 71 CACCGTTGTATTTCCAAAGTCCCAC
efficiency of Cas9/gRNA pair in creating double strand break (percent of gene modifications) (CCR5): 33.17%

HPRT gRNA#6: guide RNA to HPRT; sense oligo SEQ ID 15 CACCGGTCTCGAACTCCTGAGCTC
efficiency of Cas9/gRNA pair in creating double strand break (percent of gene modifications) (HPRT): <5%

PD1 gRNA#2: guide RNA to PD-1; sense oligo SEQ ID 35 CACCGCCTGCTCGTGGTGACCGAAG
efficiency of Cas9/gRNA pair in creating double strand break (percent of gene modifications) (PD1): >60%

CCR5 gRNA#4: guide RNA to CCR5; sense oligo SEQ ID 67 CACCGACACAGCATGGACGACAGCC
efficiency of Cas9/gRNA pair in creating double strand break (percent of gene modifications) (CCR5): 45.99%

HPRT gRNA#3: guide RNA to HPRT; sense oligo SEQ ID 9 CACCGACAAAAAAATTAGCCGGGTG
efficiency of Cas9/gRNA pair in creating double strand break (percent of gene modifications) (HPRT): <1%

AAVS1 gRNA#1: guide RNA to AAVS1; sense oligo SEQ ID 19 CACCGTGGGGGTTAGACCCAATATC
efficiency of Cas9/gRNA pair in creating double strand break (percent of gene modifications) (AAVS1): 32.99%

PD1 gRNA#6: guide RNA to PD-1; sense oligo SEQ ID 43 CACCGACGGAAGCGGCAGTCCTGGC
efficiency of Cas9/gRNA pair in creating double strand break (percent of gene modifications) (PD1): 25.91%

PD1 gRNA#5: guide RNA to PD-1; sense oligo SEQ ID 41 CACCGCGTTGGGCAGTTGTGTGACA
efficiency of Cas9/gRNA pair in creating double strand break (percent of gene modifications) (PD1): 30.60%

CCR5 gRNA#5: guide RNA to CCR5; sense oligo SEQ ID 69 CACCGATCTGGTAAAGATGATTCC
efficiency of Cas9/gRNA pair in creating double strand break (percent of gene modifications) (CCR5): 36.07%

CTLA4 gRNA#5: guide RNA to CTLA4; sense oligo SEQ ID 55 CACCGCCGCACAGACTTCAGTCACC
efficiency of Cas9/gRNA pair in creating double strand break (percent of gene modifications) (CTLA4): 15.90%

CTLA4 gRNA#3: guide RNA to CTLA4; sense oligo SEQ ID 51 CACCGCTAGATGATTCCATCTGCAC
efficiency of Cas9/gRNA pair in creating double strand break (percent of gene modifications) (CTLA4): 39.33%

CCR5 gRNA#2: guide RNA to CCR5; sense oligo SEQ ID 63 CACCGTCATCCTCCTGACAATCGAT
efficiency of Cas9/gRNA pair in creating double strand break (percent of gene modifications) (CCR5): >60%

HPRT gRNA#4: guide RNA to HPRT; sense oligo SEQ ID 11 CACCGTAAATTTCTCTGATAGACTA
efficiency of Cas9/gRNA pair in creating double strand break (percent of gene modifications) (HPRT): <5%

CCR5 gRNA#1: guide RNA to CCR5; sense oligo SEQ ID 61 CACCGACAATGTGTCAACTCTTGAC
efficiency of Cas9/gRNA pair in creating double strand break (percent of gene modifications) (CCR5): 21.47%

AAVS1 gRNA#2: guide RNA to AAVS1; sense oligo SEQ ID 21 CACCGACCCCACAGTGGGGCCACTA
efficiency of Cas9/gRNA pair in creating double strand break (percent of gene modifications) (AAVS1): 27.10%

HPRT gRNA#2: guide RNA to HPRT; sense oligo SEQ ID 7 CACCGAAACAACAGGCCGGGCGGGT
efficiency of Cas9/gRNA pair in creating double strand break (percent of gene modifications) (HPRT): 30.04% ^

PD1 gRNA#1: guide RNA to PD-1; sense oligo SEQ ID 33 CACCGCGGAGAGCTTCGTGCTAAAC
efficiency of Cas9/gRNA pair in creating double strand break (percent of gene modifications) (PD1): 10.83%

PD1 gRNA#4: guide RNA to PD-1; sense oligo SEQ ID 39 CACCGAGGCGGCCAGCTTGTCCGTC
efficiency of Cas9/gRNA pair in creating double strand break (percent of gene modifications) (PD1): 20.87%

AAVS1 gRNA#6: guide RNA to AAVS1; sense oligo SEQ ID 29 CACCGCGGGCCCCTATGTCCACTTC
efficiency of Cas9/gRNA pair in creating double strand break (percent of gene modifications) (AAVS1): 39.62%

AAVS1 gRNA#5: guide RNA to AAVS1; sense oligo SEQ ID 27 CACCGCCGGCCCTGGGAATATAAGG
efficiency of Cas9/gRNA pair in creating double strand break (percent of gene modifications) (AAVS1): 27.55%

CTLA4 gRNA#1: guide RNA to CTLA4; sense oligo SEQ ID 47 CACCGCCGGGTGACAGTGCTTCGGC
efficiency of Cas9/gRNA pair in creating double strand break (percent of gene modifications) (CTLA4): 40.96%

HPRT gRNA#5: guide RNA to HPRT; sense oligo SEQ ID 13 CACCGTGTTTCAATGAGAGCATTAC
efficiency of Cas9/gRNA pair in creating double strand break (percent of gene modifications) (HPRT): <1%

CTLA4 gRNA#4: guide RNA to CTLA4; sense oligo SEQ ID 53 CACCGAGGTTCACTTGATTTCCAC
efficiency of Cas9/gRNA pair in creating double strand break (percent of gene modifications) (CTLA4): 40.13%

HPRT gRNA#1: guide RNA to HPRT; sense oligo SEQ ID 5 CACCGCACGTGTGAACCAACCCGCC
efficiency of Cas9/gRNA pair in creating double strand break (percent of gene modifications) (HPRT): 27.85% ^

CTLA4 gRNA#6: guide RNA to CTLA4; sense oligo SEQ ID 57 CACCGCTGGCGATGCCTCGGCTGC
efficiency of Cas9/gRNA pair in creating double strand break (percent of gene modifications) (CTLA4): 36.93%

CCR5 gRNA#3: guide RNA to CCR5; sense oligo SEQ ID 65 CACCGGTGACAAGTGTGATCACTT
efficiency of Cas9/gRNA pair in creating double strand break (percent of gene modifications) (CCR5): 55.98%

CTLA4 gRNA#2: guide RNA to CTLA4; sense oligo SEQ ID 49 CACCGTGCGGCAACCTACATGATG
efficiency of Cas9/gRNA pair in creating double strand break (percent of gene modifications) (CTLA4): 56.10%
